According to patent EP0317873B1, “Radioiodinated benzamides and method of their use as radioimaging agents” (THE VANDERBILT UNIVERSITY, priority 1987, dated 1989):

How the values were obtained:
D-2 receptor [1] = molecular target: T1, D-2 receptor (Rattus norvegicus, UniProt P61169); assay: Displacement of [125I](S)-II binding to rat striatal membranes (receptor binding assay); settings: radioligand concentration 0.46 nM, nonspecific binding in the presence of 10 µM of (S)-II, 30 min at 37°C, read-out: [¹²⁵I]-(S) II binding IC₅₀
T1 construct: 90 µL of the striatal membrane preparation; from tissue; host or cells: rat striatum (membrane preparation)
T1 sequence (P61169 whole entry): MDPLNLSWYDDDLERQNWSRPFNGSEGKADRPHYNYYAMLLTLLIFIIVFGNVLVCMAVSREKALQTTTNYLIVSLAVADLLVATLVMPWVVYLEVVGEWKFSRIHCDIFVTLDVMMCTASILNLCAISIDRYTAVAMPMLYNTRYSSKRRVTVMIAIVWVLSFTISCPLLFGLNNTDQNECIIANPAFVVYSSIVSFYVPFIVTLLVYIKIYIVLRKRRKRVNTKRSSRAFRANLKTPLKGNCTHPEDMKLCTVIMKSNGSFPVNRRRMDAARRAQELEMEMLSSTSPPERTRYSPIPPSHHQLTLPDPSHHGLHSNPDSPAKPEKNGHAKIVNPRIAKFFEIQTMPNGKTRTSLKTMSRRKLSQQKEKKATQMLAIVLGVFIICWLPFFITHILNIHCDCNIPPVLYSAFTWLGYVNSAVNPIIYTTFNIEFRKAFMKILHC
Description: Lett. 64:163-168 (1986). […] Male Sprague-Dawley rats (150-200 g) were killed by decapitation and their brains quickly removed and dissected on ice. Striata were dissected and homogenized in 40 vol of ice-cold Tris-HCl (50 mM) containing 123 mM NaCl, 5 mM KCl, 2 mM CaCl₂ and 1 mM MgCl₂ (pH 7.4) using a Brinkman Polytron. The suspension was centrifuged at 30,000 x g for 10 min at 4°C, and the pellet was resuspended in 40 vol of fresh buffer with polytron. The suspension was incubated at 37°C for 10 min, centrifuged again at 30,000 x g for 10 min (4°C) and the final pellet was resuspended with the polytron in 200 vol of ice cold buffer. […] Nonspecific binding was determined in the presence of 10 µM[…]. Tubes were incubated for 30 min at 37°C, poured over Whatman GF/B filters under vacuum, and the filters were rinsed three times with 4 mL of ice cold buffer. Radioactivity remaining on the filters was measured by liquid scintillation on a Quantum 9 Multichannel analyzer operating at 35% efficiency.

D-2 receptor [2] = molecular target: T1, D-2 receptor; assay: Displacement of [3H]sulpiride binding to rat striatal membranes (receptor binding assay); settings: read-out: [³H]sulpiride binding IC₅₀, radioligand concentration 2.9 nM, nonspecific binding in the presence of 10 µM sulpiride, 30 min at 37°C
Description: Lett. 64:163-168 (1986). […] Male Sprague-Dawley rats (150-200 g) were killed by decapitation and their brains quickly removed and dissected on ice. Striata were dissected and homogenized in 40 vol of ice-cold Tris-HCl (50 mM) containing 123 mM NaCl, 5 mM KCl, 2 mM CaCl₂ and 1 mM MgCl₂ (pH 7.4) using a Brinkman Polytron. The suspension was centrifuged at 30,000 x g for 10 min at 4°C, and the pellet was resuspended in 40 vol of fresh buffer with polytron. The suspension was incubated at 37°C for 10 min, centrifuged again at 30,000 x g for 10 min (4°C) and the final pellet was resuspended with the polytron in 200 vol of ice cold buffer. Assay tubes contained […] or radioligand at 2.9 nM concentration and 90 µL of the striatal membrane preparation. Nonspecific binding was determined in the presence of 10 µM(-)[¹²⁵I](S)-II. Tubes were incubated for 30 min at 37°C, poured over Whatman GF/B filters under vacuum, and the filters were rinsed three times with 4 mL of ice cold buffer. Radioactivity remaining on the filters was measured by liquid scintillation on a Quantum 9 Multichannel analyzer operating at 35% efficiency.

D-2 receptor [3] = molecular target: T1, D-2 receptor; assay: Saturation binding of [125I](S)-II to rat striatal membranes (Scatchard analysis, time course)
Description: Male Sprague-Dawley rats (150-200 g) were killed by decapitation and their brains quickly removed and dissected on ice. Striata were dissected and homogenized in 40 vol of ice-cold Tris-HCl (50 mM) containing 123 mM NaCl, 5 mM KCl, 2 mM CaCl₂ and 1 mM MgCl₂ (pH 7.4) using a Brinkman Polytron. The suspension was centrifuged at 30,000 x g for 10 min at 4°C, and the pellet was resuspended in 40 vol of fresh buffer with polytron. The suspension was incubated at 37°C for 10 min, centrifuged again at 30,000 x g for 10 min (4°C) and the final pellet was resuspended with the polytron in 200 vol of ice cold buffer. Assay tubes contained […] or radioligand at 2.9 nM concentration and 90 µL of the striatal membrane preparation. Nonspecific binding was determined in the presence of 10 µM(-)[¹²⁵I](S)-II. Tubes were incubated for 30 min at 37°C, poured over Whatman GF/B filters under vacuum, and the filters were rinsed three times with 4 mL of ice cold buffer. Radioactivity remaining on the filters was measured by liquid scintillation on a Quantum 9 Multichannel analyzer operating at 35% efficiency. […]

[4] = at 37°C, rat striatal membranes

| IC50 (D-2 receptor [1]) | IC50 (D-2 receptor [2]) | maximal number of binding sites (D-2 receptor [3]; Scatchard analysis of the saturation isotherm, rat striatal membranes) | Kd (D-2 receptor [3]; Scatchard analysis of the saturation isotherm, single set of binding sites, rat striatal membranes) | time binding remained stable (D-2 receptor [3]; [4]) | time for binding to reach equilibrium (D-2 receptor [3]; [4]) | character of binding to rat striated membranes (D-2 receptor [3]; conditions of the receptor binding assay) | SMILES |
| --- | --- | --- | --- | --- | --- | --- | --- |
| 169 nM | 146 nM |  |  |  |  |  | CCN1CCC[C@@H]1CNC(=O)c1cc(I)ccc1OC [(R)-II] |
| 5 nM |  |  |  |  |  |  | CCN1CCC[C@H]1CNC(=O)c1cc(I)ccc1OC [(S)-II, (S)-N-[(1-ethyl-2-pyrrolidinyl)methyl]-5-iodo-2-methoxybenzamide] |
|  |  | 169 fmol/mg protein | 1 nM | at least 60 min | ≤ 20 min | saturable, reversible and stereospecific | CCN1CCC[C@H]1CNC(=O)c1cc([125I])ccc1OC [Example 1] |
